Laboratory results: PMC8448092, “Inhibitory Compounds Targeting Plasmodium falciparum Gyrase B” (Antimicrobial Agents and Chemotherapy, 2021)
Read-outs that look alike come from different tables or passages of the source.

Key:
EcGyr [1] = target: T1, EcGyr (Escherichia coli, UniProt P0AES4+P0AES6); experiment: DNA supercoiling assay, E. coli gyrase; type: biochemical; details: relaxed pBR322, 37°C 30 min, 1% DMSO, n = 3; read-out: IC50 supercoiling inhibitory activity, EcGyr
T1 construct: made in house
Protocol: A supercoiling assay was utilized to test a library of compounds previously selected for binding to EcA2PfB2 but not EcGyr. The library was a kind gift from Yasumitsu Kondoh, RIKEN. The EcGyr complex was used as a control allowing selection for specific compounds that target PfB. Supercoiling assays were carried out in a buffer consisting of 35 mM Tris-HCl (pH 7.5), 24 mM KCl, 4 mM MgCl2, 2 mM DTT, 1.8 mM spermidine, 1 mM ATP, 6.5% (wt/vol) glycerol, and 0.1 mg/ml bovine serum albumin (BSA). The hybrid (EcA2PfB2) complex or EcGyr complex was formed in the storage buffer (50 mM Tris-HCl [pH 7.5], 100 mM KCl, 10% [wt/vol] glycerol, 1 mM EDTA, 2 mM DTT). In a 30-μl reaction, the gyrase complex and 0.5 μg of pBR322 relaxed DNA (Inspiralis, United Kingdom) were assembled on ice and incubated at 37°C for 30 min. The reaction was then stopped by adding an equal volume of stop solution (40% sucrose, 100 mM Tris-HCl [pH 7.5], 1 mM EDTA, 0.5 mg/ml bromophenol blue) and extracted by mixing with 30 μl chloroform-isoamyl alcohol (24:1). The samples were centrifuged at 14,000 × g for 1 min, and the aqueous phase was collected and loaded onto a 1% 1× Tris-acetate-EDTA (TAE) agarose gel. The DNA products were resolved by electrophoresis at 80 V for 120 min and visualized by UV irradiation. The images were then analyzed using ImageJ v.1.47 to obtain the intensity of the supercoiled DNA band. […]

EcA2PfB2 [2] = target: T2, EcA2PfB2 (Plasmodium falciparum, UniProt Q8I528); experiment: biochemical; type: biochemical, Plasmodium falciparum GyrB with Escherichia coli GyrA; details: for Sensitivity of hybrid complex to known bacterial gyrase inhibitors: supercoiling, Fig. S1D and E
Protocol: A supercoiling assay was utilized to test a library of compounds previously selected for binding to EcA2PfB2 but not EcGyr. The library was a kind gift from Yasumitsu Kondoh, RIKEN. The EcGyr complex was used as a control allowing selection for specific compounds that target PfB. Supercoiling assays were carried out in a buffer consisting of 35 mM Tris-HCl (pH 7.5), 24 mM KCl, 4 mM MgCl2, 2 mM DTT, 1.8 mM spermidine, 1 mM ATP, 6.5% (wt/vol) glycerol, and 0.1 mg/ml bovine serum albumin (BSA). The hybrid (EcA2PfB2) complex or EcGyr complex was formed in the storage buffer (50 mM Tris-HCl [pH 7.5], 100 mM KCl, 10% [wt/vol] glycerol, 1 mM EDTA, 2 mM DTT). In a 30-μl reaction, the gyrase complex and 0.5 μg of pBR322 relaxed DNA (Inspiralis, United Kingdom) were assembled on ice and incubated at 37°C for 30 min. The reaction was then stopped by adding an equal volume of stop solution (40% sucrose, 100 mM Tris-HCl [pH 7.5], 1 mM EDTA, 0.5 mg/ml bromophenol blue) and extracted by mixing with 30 μl chloroform-isoamyl alcohol (24:1). The samples were centrifuged at 14,000 × g for 1 min, and the aqueous phase was collected and loaded onto a 1% 1× Tris-acetate-EDTA (TAE) agarose gel. The DNA products were resolved by electrophoresis at 80 V for 120 min and visualized by UV irradiation. The images were then analyzed using ImageJ v.1.47 to obtain the intensity of the supercoiled DNA band. Gyrase with 1% dimethyl sulfoxide (DMSO) was used as the control. The percentage of supercoiled DNA (% SC) was normalized using samples with gyrase in the absence of inhibitor as the full supercoiling control and was plotted against PPG concentration. Data were fitted to the equation % SC = ae^b^[PPG], where a and b are function parameters, using OriginLab Origin (Pro) v.2020b.

PfB [3] = target: T3, PfB (Plasmodium falciparum, UniProt Q8I528); experiment: ATP hydrolysis assay (malachite green), PfB; type: biochemical; details: 1 μM PfB
Protocol: (§1) The ATP hydrolysis reaction was performed as follows. Enzyme was incubated in the assay buffer (50 mM Tris-HCl [pH 7.5], 125 mM KCl, 1 mM EDTA, 5 mM MgCl2, 5 mM DTT, 10% glycerol) with test compounds at various concentrations, 1 mM ATP, and 10.5 nM linear pBR322 DNA for 30 min at room temperature. The protein concentrations used in the assay were as follows: 1 μM PfB, 0.5 μM EcA2PfB2, and 100 nM EcGyr. A malachite green assay kit (Sigma-Aldrich) was used to measure the released phosphate in the reaction. In brief, malachite green reagent was added to the reaction mixture, and the mixture was further incubated for 10 min. The formed color was measured at 620 nm using a plate reader (SpectraMAX190; Molecular Devices). The amount of released phosphate was calculated based on a calibration curve covering a linear range of 50 to 250 pmol using eight concentrations, which was prepared for each measurement independently. Experiments were carried out in triplicate.

PfB [4] = target: T3, PfB; experiment: Microscale thermophoresis binding to PfB
Protocol: (§2) Microscale thermophoresis (MST) experiments were performed using a Monolith NT.115 instrument (NanoTemper). Proteins (PfB and EcB) were labeled with Red 2nd Generation labeling kits (NanoTemper) in which the fluorescent red dye was coupled with protein via NHS coupling. Labeled protein (100 nM) was mixed with PPG (Activate Scientific, dissolved in DMSO to a final concentration of 5%) and in MST buffer {240 mM NaPi (pH 7.4), 274 mM NaCl, 54 mM KCl, 100 μM TCEP [Tris(2-carboxyethyl)phosphine hydrochloride], 0.05% Tween 20, 5% DMSO} and incubated in the dark for 15 min. The samples were applied onto capillaries (Monolith NT.115 MST Premium coated capillaries), and the fluorescence signal was measured using MO.Control software (Nanotemper). Initial fluorescence signal was used for binding analysis, and Kd was calculated using 1:1 binding model. Results were baseline corrected and normalized for amplitude using MO.Control software (Nanotemper). The Kd values were calculated based on three independent measurements. All experiments were performed at room temperature.

EcB = target: T4, EcB (Escherichia coli, UniProt P0AES6); experiment: Microscale thermophoresis binding to EcB; details: 1:1 binding model, 100 nM labeled protein, 5% DMSO, room temperature; read-out: Kd for EcB (MST)
T4 construct: made in house
Protocol: as §2

EcA2PfB2 [5] = target: T2, EcA2PfB2; experiment: ATP hydrolysis assay (malachite green), hybrid gyrase; type: biochemical, Plasmodium falciparum GyrB with Escherichia coli GyrA
Protocol: as §1, with “Enzyme was incubated in the assay buffer (50 mM Tris-HCl [pH 7.5], 125 mM KCl, 1 mM EDTA, 5 mM MgCl2, 5 mM DTT, 10% glycerol) with test compounds at various concentrations, 1 mM ATP, and 10.5 nM linear pBR322 DNA for 30 min at room temperature.” left out

PfB [6] = target: T3, PfB; experiment: EMSA DNA binding, PfB; details: 147 bp DNA, 1 μM PfB
Protocol: (§3) DNA binding assays were carried out using electrophoretic mobility shift assay (EMSA) with 147 bp dsDNA (based on the preferred gyrase cleavage site from plasmid pBR322) ([31]). In brief, 20 nM DNA was mixed with 200 nM reconstituted complex (hybrid or EcGyr) or 1 μM PfB in an assay buffer (30 mM Tris-HCl [pH 7.5], 75 mM KCl, 2 mM MgCl2, 6% glycerol, 1 mM DTT) and PPG for 1 h at room temperature. The samples were resolved in a 5% polyacrylamide gel in TBM buffer (90 mM Tris-borate, pH 7.5, 4 mM MgCl2) for 1 h at 80 V. The gel was stained with SYBR gold (Thermo) and visualized under UV light.

EcA2PfB2 [7] = target: T2, EcA2PfB2; experiment: DNA cleavage assay; type: biochemical, Plasmodium falciparum GyrB with Escherichia coli GyrA; details: 150 nM EcA2PfB2, supercoiled DNA, no ATP
Protocol: 22 The purified proteins (2 µg) were subjected to a 10% SDS PAGE and resolved by
23 electrophoresis at 180 V for 40 minutes. The protein bands were visualized by Coommassie
26 The DNA cleavage assay was performed in the same buffer conditions as for
27 supercoiling but ATP was omitted and supercoiled DNA was used instead of relaxed DNA.
28 EcA2PfB2 complex (150 nM) was incubated with 0.5 µg of supercoiled DNA in the
29 absence/presence of inhibitors for 60 min at 37 °C. In order to monitor the production of
30 linearized DNA, protein was removed by addition of 3 µl of 2% SDS and 1 µl of proteinase K
31 (>700 U) followed by further incubation at 37 °C for 30 min. The DNA was then extracted and
32 resolved in gel electrophoresis as described.

P. falciparum 3D7 [8] = experiment: P. falciparum growth inhibition in vitro (SYBR green); type: cell-based; details: Plasmodium falciparum, 96 h of treatment
Protocol: Tests on parasites were performed by Anti-infectives Screening Core Services at NYU School of Medicine based on previously published protocol ([44]). P. falciparum strain 3D7 was used for all determinations. Using 96-well plates, 100 μl of P. falciparum growth medium (RPMI 1640, 25 mM HEPES, 0.1 mg/ml gentamicin, 0.05 mg/liter hypoxanthine [pH 6.75]), supplemented with 0.25% sodium bicarbonate and 0.5% Albumax II (Invitrogen), was added to each well. A 10 mM stock of PPG in DMSO was then serially diluted in triplicate. DMSO at the highest concentration used (0.5%) was tested in parallel as a control. Asynchronous P. falciparum in a 100-μl volume was then added to each well at 0.25% late-stage parasitemia with 5% hematocrit, as well as controls (medium, red blood cells, P. falciparum, or P. falciparum with 2 μM chloroquine). The plates were placed in a sealed chamber and maintained under atmospheric conditions of 5% oxygen, 5% carbon dioxide, and 90% nitrogen at 37°C for 96 h. To determine the cell viability, a SYBR green assay for rapid assessment was performed.
After incubation, plates were placed at −80°C for 24 h. The plates were then thawed at 37°C for 4 h. Once thawed, 100 μl of from each resuspended well was transferred into a black, 96-well plate. […] Plates were analyzed on a fluorescence plate reader (Victor) at excitation and emission wavelengths of 485 and 530 nm, respectively. […]

EcGyr [9] = target: T1, EcGyr; experiment: EMSA DNA binding, EcGyr; details: 147 bp DNA, 200 nM complex
Protocol: as §3

EcA2PfB2 [10] = target: T2, EcA2PfB2; experiment: EMSA DNA binding, hybrid gyrase; set-up: species or system Plasmodium falciparum GyrB with Escherichia coli GyrA; details: 147 bp DNA, 200 nM complex
Protocol: as §3

EcGyr [11] = target: T1, EcGyr; experiment: ATP hydrolysis assay (malachite green), EcGyr; type: biochemical; details: 100 nM EcGyr
Protocol: as §1

P. falciparum 3D7 [12] = details: growth in vitro; ref [25], [33]; cited from earlier work

## O=C1c2ccccc2C(=O)c2c1cc(S(=O)(=O)O)c(O)c2O [ARS, 1,2-dihydroxy-3-(oxysulfonyl)-9,10-anthracenedione]
EcGyr [1]
  IC50: > 100 µM
EcA2PfB2 [2]
  IC50: 55.6 ± 6.74 µM

## O=c1c(O)cccc2cc(O)c(O)c(O)c12 [PPG, 3,9,10,11-tetrahydroxybicyclo[5.4.0]undeca-1(7),3,5,8,10-pentaen-2-one]
PfB [3]; 10.5 nM linear pBR322 DNA, 1 mM ATP
  Effect on DNA-enhanced ATP hydrolysis of PfB: decreased this DNA-enhanced ATP hydrolysis of PfB in a dose-dependent manner
PfB [3]; no DNA
  Effect on intrinsic ATPase activity of PfB: remained unchanged
PfB [4]
  Kd: ~1.03 µM
EcB
  Kd: ~4.54 µM
EcA2PfB2 [5]; 0.5 μM EcA2PfB2
  Effect on ATPase activity of EcA2PfB2 in the absence of DNA: decreased the ATPase activity in both the absence and presence of DNA
EcA2PfB2 [5]; 0.5 μM EcA2PfB2, with DNA
  Effect on DNA-induced ATPase activity of EcA2PfB2: inhibited the DNA-induced ATPase activity of EcA2PfB2, although this was more modest
PfB [6]
  PPG concentration at which formation of the DNA-PfB complex was inhibited: approximately 20 μM
EcA2PfB2 [7]
  Linear DNA formation (cleavage complex stabilization): did not observe any linear DNA formation
P. falciparum 3D7 [8]
  IC50: 92 ± 16 µM
EcGyr [9]
  Effect on DNA-EcGyr complex: remained intact
EcGyr [1]
  IC50: > 1000 µM
EcA2PfB2 [10]
  PPG concentration at which the DNA-EcA2PfB2 complex was disrupted: 10 µM
EcGyr [11]
  Effect on intrinsic and enhanced ATP hydrolysis by EcB in complex with EcA: little affected
EcA2PfB2 [2]
  IC50: 9.56 ± 1.94 µM

## CO[C@@H]1[C@@H](OC(N)=O)[C@@H](O)[C@H](Oc2ccc3c(O)c(NC(=O)c4ccc(O)c(CC=C(C)C)c4)c(=O)oc3c2C)OC1(C)C [Novobiocin, reference compound]
EcA2PfB2 [2]
  Sensitivity of hybrid complex to known bacterial gyrase inhibitors: sensitive

## O=C(O)c1cn(C2CC2)c2cc(N3CCNCC3)c(F)cc2c1=O [CIP, ciprofloxacin, reference compound]
P. falciparum 3D7 [12]
  IC50: 3 ± 0.5 µM
EcA2PfB2 [2]
  Sensitivity of hybrid complex to known bacterial gyrase inhibitors: sensitive
